± gives the standard deviation of the averaged measurements.
Tests used:
Test in all cases: normalised growth rate inhibition (GR value) relative to DMSO control (GR (1 = untreated growth, 0 = cytostasis, <0 = cytotoxic)); higher = less growth inhibition
Details in all cases: 72 h
[1] = tested on: SKBR3
Procedure: (§1)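 Breast cancer cell lines (BT-20, Hs 578T, MCF 10A, MCF7, MDA-MB-231, SK-BR-3) were plated in 384-well plates and treated 24 h later with drugs at six concentrations (0.04-10 µM). Viable cells were counted by Hoechst/dead-cell-stain imaging at 0 and 72 h. Counts were normalised to DMSO controls on the same plate to give the relative cell count and the growth-rate inhibition (GR) value; technical plate triplicates were averaged for each biological replicate.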

[2] = tested on: HS578T
Procedure: as §1

[3] = tested on: MCF10A
Procedure: as §1

[4] = tested on: MDAMB231
Procedure: as §1

[5] = tested on: MCF7
Procedure: as §1

[6] = tested on: BT20
Procedure: as §1

| Structure (SMILES) | normalised growth rate inhibition ([1]; 0.04 µM) | normalised growth rate inhibition ([1]; 0.12 µM) | normalised growth rate inhibition ([1]; 0.37 µM) | normalised growth rate inhibition ([1]; 1.11 µM) | normalised growth rate inhibition ([1]; 3.33 µM) | normalised growth rate inhibition ([1]; 10 µM) | normalised growth rate inhibition ([2]; 0.04 µM) | normalised growth rate inhibition ([2]; 0.12 µM) | normalised growth rate inhibition ([2]; 0.37 µM) | normalised growth rate inhibition ([2]; 1.11 µM) | normalised growth rate inhibition ([2]; 3.33 µM) | normalised growth rate inhibition ([2]; 10 µM) | normalised growth rate inhibition ([3]; 0.04 µM) | normalised growth rate inhibition ([3]; 0.12 µM) | normalised growth rate inhibition ([3]; 0.37 µM) | normalised growth rate inhibition ([3]; 1.11 µM) | normalised growth rate inhibition ([3]; 3.33 µM) | normalised growth rate inhibition ([3]; 10 µM) | normalised growth rate inhibition ([4]; 0.04 µM) | normalised growth rate inhibition ([4]; 0.12 µM) | normalised growth rate inhibition ([4]; 0.37 µM) | normalised growth rate inhibition ([4]; 1.11 µM) | normalised growth rate inhibition ([4]; 3.33 µM) | normalised growth rate inhibition ([4]; 10 µM) | normalised growth rate inhibition ([5]; 0.04 µM) | normalised growth rate inhibition ([5]; 0.12 µM) | normalised growth rate inhibition ([5]; 0.37 µM) | normalised growth rate inhibition ([5]; 1.11 µM) | normalised growth rate inhibition ([5]; 3.33 µM) | normalised growth rate inhibition ([5]; 10 µM) | normalised growth rate inhibition ([6]; 0.04 µM) | normalised growth rate inhibition ([6]; 0.12 µM) | normalised growth rate inhibition ([6]; 0.37 µM) | normalised growth rate inhibition ([6]; 1.11 µM) | normalised growth rate inhibition ([6]; 3.33 µM) | normalised growth rate inhibition ([6]; 10 µM) |
| --- | --- | --- | --- | --- | --- | --- | --- | --- | --- | --- | --- | --- | --- | --- | --- | --- | --- | --- | --- | --- | --- | --- | --- | --- | --- | --- | --- | --- | --- | --- | --- | --- | --- | --- | --- | --- |
| CC(C)CC(=O)Nc1n[nH]c2c1CN(C(=O)C1CCN(C)CC1)C2(C)C | 0.145 ± 0.15 | 0.0952 ± 0.085 | 0.0136 ± 0.079 | -0.0334 ± 0.073 | -0.0738 ± 0.074 | -0.305 ± 0.21 | 0.497 ± 0.057 | 0.427 ± 0.073 | 0.227 ± 0.11 | 0.0474 ± 0.12 | -0.035 ± 0.096 | -0.157 ± 0.11 | 0.322 ± 0.09 | 0.228 ± 0.053 | 0.116 ± 0.063 | 0.0382 ± 0.073 | -0.0512 ± 0.066 | -0.187 ± 0.19 | 0.304 ± 0.16 | 0.211 ± 0.072 | 0.0329 ± 0.056 | -0.0471 ± 0.091 | -0.13 ± 0.13 | -0.262 ± 0.2 | 0.207 ± 0.15 | 0.143 ± 0.1 | 0.0348 ± 0.063 | -0.0125 ± 0.053 | -0.102 ± 0.12 | -0.328 ± 0.029 | 0.52 ± 0.085 | 0.436 ± 0.047 | 0.276 ± 0.097 | 0.109 ± 0.12 | -0.0127 ± 0.079 | -0.219 ± 0.12 |
| Cc1ccc2nc(NCCN)c3ncc(C)n3c2c1 | 1.05 ± 0.043 | 1.01 ± 0.088 | 0.929 ± 0.11 | 0.604 ± 0.066 | 0.192 ± 0.13 | -0.358 ± 0.23 | 1.01 ± 0.018 | 0.998 ± 0.018 | 0.99 ± 0.021 | 0.92 ± 0.049 | 0.723 ± 0.11 | -0.218 ± 0.13 | 0.996 ± 0.011 | 0.979 ± 0.014 | 0.974 ± 0.016 | 0.967 ± 0.019 | 0.957 ± 0.018 | 0.85 ± 0.046 | 0.9929 ± 0.0097 | 0.936 ± 0.097 | 0.885 ± 0.06 | 0.652 ± 0.085 | 0.265 ± 0.11 | -0.253 ± 0.2 | 1.06 ± 0.058 | 1 ± 0.06 | 0.883 ± 0.058 | 0.502 ± 0.14 | 0.0136 ± 0.12 | -0.348 ± 0.14 | 1.01 ± 0.027 | 0.968 ± 0.055 | 0.952 ± 0.087 | 0.847 ± 0.12 | 0.778 ± 0.082 | -0.00828 ± 0.2 |
| O=c1[nH]c2ccccc2n1C1CCN(Cc2ccc(-c3[nH]c4cc5ncnc5cc4nc3-c3ccccc3)cc2)CC1 [AKT-inhibitor-1-2] | 0.675 ± 0.14 | 0.759 ± 0.051 | 0.766 ± 0.021 | 0.587 ± 0.091 | 0.599 ± 0.027 | 0.299 ± 0.043 | 0.9753 ± 0.0043 | 0.9556 ± 0.0094 | 0.933 ± 0.0086 | 0.857 ± 0.029 | 0.875 ± 0.024 | 0.388 ± 0.099 | 0.994 ± 0.01 | 0.979 ± 0.01 | 0.9721 ± 0.0092 | 0.922 ± 0.048 | 0.945 ± 0.047 | 0.605 ± 0.15 | 0.874 ± 0.091 | 0.889 ± 0.086 | 0.918 ± 0.046 | 0.835 ± 0.083 | 0.888 ± 0.023 | 0.56 ± 0.11 | 0.749 ± 0.023 | 0.741 ± 0.034 | 0.701 ± 0.1 | 0.471 ± 0.066 | 0.436 ± 0.11 | -0.0151 ± 0.17 | 0.831 ± 0.027 | 0.851 ± 0.026 | 0.921 ± 0.023 | 0.849 ± 0.015 | 0.872 ± 0.026 | 0.291 ± 0.052 |
| CN1CCN(c2ccc3nc(-c4c(N)c5c(F)cccc5[nH]c4=O)[nH]c3c2)CC1 [dovitinib] | 0.711 ± 0.12 | 0.659 ± 0.066 | 0.497 ± 0.062 | 0.474 ± 0.081 | 0.275 ± 0.04 | 0.142 ± 0.045 | 0.791 ± 0.047 | 0.562 ± 0.035 | 0.3 ± 0.083 | 0.271 ± 0.097 | 0.283 ± 0.079 | 0.254 ± 0.16 | 0.962 ± 0.032 | 0.893 ± 0.046 | 0.599 ± 0.098 | 0.368 ± 0.18 | 0.146 ± 0.085 | 0.0253 ± 0.033 | 0.903 ± 0.11 | 0.817 ± 0.14 | 0.534 ± 0.1 | 0.451 ± 0.12 | 0.343 ± 0.068 | 0.23 ± 0.099 | 0.898 ± 0.047 | 0.862 ± 0.079 | 0.678 ± 0.14 | 0.554 ± 0.19 | 0.379 ± 0.17 | 0.304 ± 0.1 | 0.83 ± 0.047 | 0.685 ± 0.11 | 0.394 ± 0.13 | 0.304 ± 0.072 | 0.219 ± 0.034 | 0.156 ± 0.12 |
| Cn1c(=O)n(-c2ccc(C(C)(C)C#N)cc2)c2c3cc(-c4cnc5ccccc5c4)ccc3ncc21 [NVP-BEZ235] | 0.0857 ± 0.065 | 0.0449 ± 0.11 | -0.0406 ± 0.12 | -0.04 ± 0.11 | -0.035 ± 0.12 | 0.0305 ± 0.11 | 0.261 ± 0.067 | 0.197 ± 0.078 | 0.109 ± 0.087 | 0.132 ± 0.11 | 0.115 ± 0.052 | 0.128 ± 0.044 | 0.393 ± 0.24 | 0.269 ± 0.12 | 0.171 ± 0.038 | 0.164 ± 0.048 | 0.168 ± 0.052 | 0.202 ± 0.03 | 0.397 ± 0.2 | 0.301 ± 0.19 | 0.196 ± 0.2 | 0.216 ± 0.15 | 0.223 ± 0.11 | 0.266 ± 0.095 | 0.166 ± 0.15 | 0.122 ± 0.16 | 0.0651 ± 0.16 | 0.0257 ± 0.12 | 0.034 ± 0.1 | 0.068 ± 0.071 | 0.254 ± 0.1 | 0.13 ± 0.12 | 0.0662 ± 0.092 | 0.061 ± 0.042 | 0.055 ± 0.039 | 0.103 ± 0.053 |
| CCN(CC)CCCCNc1ncc2cc(-c3cc(OC)cc(OC)c3)c(NC(=O)NC(C)(C)C)nc2n1 | 1.14 ± 0.12 | 1.12 ± 0.13 | 1.08 ± 0.085 | 1.13 ± 0.12 | 1.12 ± 0.11 | 0.209 ± 0.2 | 0.852 ± 0.074 | 0.824 ± 0.083 | 0.835 ± 0.074 | 0.846 ± 0.061 | 0.809 ± 0.071 | 0.164 ± 0.14 | 1.022 ± 0.0032 | 1.005 ± 0.0025 | 0.9981 ± 0.0038 | 0.9929 ± 0.0079 | 0.984 ± 0.016 | 0.644 ± 0.15 | 1.08 ± 0.053 | 1.07 ± 0.032 | 1.08 ± 0.079 | 1.07 ± 0.054 | 1.04 ± 0.018 | 0.0514 ± 0.23 | 1.1 ± 0.066 | 1.08 ± 0.029 | 1.04 ± 0.078 | 1.1 ± 0.066 | 1.1 ± 0.12 | 0.572 ± 0.16 | 1.1 ± 0.039 | 1.08 ± 0.058 | 1.09 ± 0.056 | 1.14 ± 0.066 | 1.16 ± 0.049 | 0.853 ± 0.18 |
| Cc1[nH]c(/C=C2\C(=O)Nc3ccc(S(=O)(=O)N(C)c4cccc(Cl)c4)cc32)c(C)c1C(=O)N1CCN(C)CC1 | 1.14 ± 0.075 | 1.08 ± 0.085 | 1.11 ± 0.057 | 0.996 ± 0.058 | 0.923 ± 0.032 | 0.00625 ± 0.024 | 1.02 ± 0.014 | 0.992 ± 0.013 | 0.9492 ± 0.0032 | 0.883 ± 0.025 | 0.818 ± 0.03 | 0.159 ± 0.083 | 1 ± 0.019 | 0.976 ± 0.02 | 0.941 ± 0.02 | 0.867 ± 0.01 | 0.742 ± 0.022 | 0.474 ± 0.032 | 1.07 ± 0.065 | 1.01 ± 0.04 | 1 ± 0.057 | 0.954 ± 0.058 | 0.847 ± 0.076 | 0.0987 ± 0.12 | 1.1 ± 0.046 | 1.05 ± 0.075 | 1.01 ± 0.073 | 0.858 ± 0.037 | 0.712 ± 0.045 | 0.0989 ± 0.046 | 1.06 ± 0.037 | 1.04 ± 0.017 | 1 ± 0.029 | 0.922 ± 0.015 | 0.819 ± 0.011 | 0.0654 ± 0.082 |
| COc1cc(C(=O)N2CCC(N3CCN(C)CC3)CC2)ccc1Nc1ncc2c(n1)N(C)c1ccccc1C(=O)N2C [XMD-1150] | 0.677 ± 0.17 | 0.669 ± 0.12 | 0.609 ± 0.12 | 0.514 ± 0.16 | 0.348 ± 0.18 | 0.0641 ± 0.18 | 0.964 ± 0.035 | 0.913 ± 0.051 | 0.815 ± 0.034 | 0.66 ± 0.0096 | 0.411 ± 0.039 | -0.053 ± 0.089 | 0.973 ± 0.013 | 0.937 ± 0.021 | 0.841 ± 0.036 | 0.665 ± 0.078 | 0.384 ± 0.12 | 0.123 ± 0.052 | 0.891 ± 0.054 | 0.818 ± 0.088 | 0.567 ± 0.12 | 0.353 ± 0.077 | 0.189 ± 0.029 | 0.0699 ± 0.13 | 0.852 ± 0.021 | 0.784 ± 0.014 | 0.599 ± 0.018 | 0.365 ± 0.034 | 0.201 ± 0.012 | 0.0333 ± 0.0087 | 0.885 ± 0.11 | 0.85 ± 0.16 | 0.803 ± 0.16 | 0.722 ± 0.17 | 0.551 ± 0.12 | 0.238 ± 0.15 |
